Reference: ChEMBL document CHEMBL1136600, “Functional expression and characterization of EryA, the erythritol kinase of Brucella abortus, and enzymatic synthesis of L-erythritol-4-phosphate” (Bioorg Med Chem Lett, 2003)
pIC50: −log10 of the molar value.

Tests used:
Brucella abortus = assay: Kinetic parameter against EryA, erythritol kinase of brucella abortus expressed in Escherichia coli
[1] = system: Propionibacterium acidipropionici; assay: Kinetic parameters against EryA, erythritol kinase from Propionibacterium pentosaceum
[2] = Inhibition of 4-diphosphocytidyl-2-C-methyl-d-erythritol (CDP-ME) synthase

Row | Structure (SMILES) | Km (Brucella abortus) | k cat (Brucella abortus) | Km [1] | pIC50 [2]
1 | Nc1ncnc2c1ncn2[C@@H]1O[C@H](COP(=O)(O)OP(=O)(O)OP(=O)(O)O)[C@@H](O)[C@H]1O | 9.8 mM | 230 s⁻¹ | 4800 µM | 
2 | OC[C@@H](O)[C@@H](O)CO | 0.26 mM | 230 s⁻¹ | 880 µM | 
3 | C[C@@](O)(CO)[C@@H](O)COP(=O)(O)O |  |  |  | 2.87
